# Numbered stars: 1 amine (or outer) side, 2 acyl side, 3 side chain; on linkers, the order of the positions; unused ones are H or OH. Square brackets hold non-standard residues; d marks the D form. Suc = O=C(CCC(=O)[*:2])[*:1]; NMeV = CN[C@H](C(=O)O)C(C)C; βAla = NCCC(=O)O
# Test system: Tilapia fish
# Test: Experiment #3: tilapia fed AN6-coated feed, treatment schedules 1 to 8 (survival, weight, length, size distribution, FCR)
# Assay type: in vivo
# Conditions: for increase in average fish weight: D279, compared to control; for % big fish (Big fish 279 dph >1000 g) / % small fish (Small fish 279 dph >476 g) / Δ Treatment - Control (%) big fish (>1000 g) / Δ Treatment - Control (%) small fish (>476 g) / Big fish # (Big fish 279 dph >1000 g) / Small fish # (Small fish 279 dph): 279 dph; for Average FCR/cage / Average density (body/cage) / Average weight gain/fish (g) / Average weight/fish (g) / Total weight/cage (g): D 236 to D 279, % change relative to control
# Description: The following fish feed was used in this experiment: MeM (powder, manufactured by Bern Aqua), Nanolis P1, P2 (pellet sizes of 1 mm, 1.2-1.5 mm, respectively, manufactured by Ocialis) and Tilaphi 2, 3 & 4 (pellet sizes of 2 mm, 3-4 mm & 5.5 mm manufactured by Ocialis). The feed content is in described in Table 4.
# Feed was coated using the following general procedure: Different amounts of the peptide AN6 (SEQ ID NO: 6) were prepared by dissolving the peptide in Tris-HCl solution (50 mM, pH=8.8) in ratio of 15 mg peptide to 1.25 ml Tris-HCl solution. Then, each of the various solutions was mixed with 3 Kg of the basic feed pellets (depending on fish size) using an electric mixer. The peptide-feed mixtures where then dried either in oven at 40° C. for 24 hours or in drying drum (at room temperature) for few hours to form coated pellets.
# Tilapia fish (n=4800) were raised from day 10 (0.05 g) post-hatch (dph) in indoor tanks and then transferred to outdoor cages in ponds (40-279 dph). Each cage/tank is an experimental unit. The fish were fed to apparent satiation 2-4 times a day with feed appropriate to their age and treatment as described in Table 5.
# The trial included total 48 cages representing 8 treatments, with 6 repeats each. Each cage contained about 100 fish. […] Fed to fish throughout the entire growth-trial period (for 279 days); • Treatment 2 (5 ppm from 10 dph for 120 days): The control diet with the addition of 5 mg peptide/kg of diet (Feed F). Fish were fed the peptide enriched diet for 120 days (4 months), from 10 days of age (D0—the first day of the experiment) to 130 days of age (D120), and the control diet during the last 6 months (159 days) (Feed E); • Treatment 3 (10 ppm from 10 dph for 60 days): The control diet with the addition of 10 mg peptide/kg of diet (Feed G). […] Fish were fed the peptide enriched diet for 90 days (3 months) from 10 days of age (D0) to 100 days of age (D90) and the control diet for the last 7 months (189 days) (Feed E); • Treatment 5 (10 ppm from 10 dph for 120 days): The control diet with the addition of 10 mg peptide/kg of diet (Feed G). Fish were fed the peptide enriched diet for 120 days (4 months) from 10 days of age (D0) to 130 days of age (D120) and the control diet for the last 6 months (159 days) (Feed E); • Treatment 6 (10 ppm from 100 dph for 30 days): The control diet with the addition of 10 mg peptide/kg of diet (Feed G). Fish were fed the peptide enriched diet for 30 days (1 month) from 100 days of age (D90) to 130 days of age (D120) and the control diet for the first three months (90 days from D0 to D90) and the last 6 months (159 days) (Feed E); • Treatment 7 (30 ppm from 10 dph for 60 days): The control diet with the addition of 30 mg peptide/kg of diet (Feed H). Fish were fed the peptide enriched diet for 60 days (2 months) from 10 days of age (D0) to 70 days of age (D60), and the control diet during the last 8 months (219 days) (Feed E); • Treatment 8 (30 ppm from 10 dph for 90 days): The control diet with the addition of 30 mg peptide/kg of diet (Feed H). Fish were fed the peptide enriched diet for 90 days (3 months) from 10 days of age (D0) to 100 days of age (D90) and the control diet for the last 7 months (189 days) (Feed E).
# During the experimental period, fish weight and length were measured once a month. Individual fish sex was determined at days 96 and 279 of the experiment. Average fish weight per cage were calculated for each measurement period (FIG. 8). […] Between two weight measurements, average weight gain (FIG. 9A) and daily growth rates (FIG. 9B) were calculated by subtracting the average weight at the beginning and end of the measuring period and dividing by the number of days between.
# In order to determine the efficiency of feed conversion into fish substance in experiments (#1, #2, #3), FCR values which reflect the amount of feed needed to grow a kilogram fish, were calculated for each period and for the entire fish growth period. […]
# [1] = AN6 for 60 days, 10 mg/Kg feed (Treatment 3)
# [2] = AN6 for 90 days, 30 mg/Kg feed (Treatment 8)
# [3] = AN6 treated groups (Treatments 2, 3, or 8)
# [4] = Treatment 2 (5 ppm from 10 dph for 120 days)
# [5] = Treatment 2 (5 ppm from 10 dph for 120 days), of 451 fish
# [6] = Treatment 2 (5 ppm from 10 dph for 120 days), female fish, D 96
# [7] = Treatment 2 (5 ppm from 10 dph for 120 days), female fish, D 279
# [8] = Treatment 2 (5 ppm from 10 dph for 120 days), male fish, D 96
# [9] = Treatment 2 (5 ppm from 10 dph for 120 days), male fish, D 279
# [10] = Treatment 3 (10 ppm from 10 dph for 60 days)
# [11] = Treatment 3 (10 ppm from 10 dph for 60 days), of 480 fish
# [12] = Treatment 3 (10 ppm from 10 dph for 60 days), female fish, D 96
# [13] = Treatment 3 (10 ppm from 10 dph for 60 days), female fish, D 279
# [14] = Treatment 3 (10 ppm from 10 dph for 60 days), male fish, D 96
# [15] = Treatment 3 (10 ppm from 10 dph for 60 days), male fish, D 279
# [16] = Treatment 4 (10 ppm from 10 dph for 90 days)
# [17] = Treatment 4 (10 ppm from 10 dph for 90 days), of 463 fish
# [18] = Treatment 4 (10 ppm from 10 dph for 90 days), female fish, D 96
# [19] = Treatment 4 (10 ppm from 10 dph for 90 days), female fish, D 279
# [20] = Treatment 4 (10 ppm from 10 dph for 90 days), male fish, D 96
# [21] = Treatment 4 (10 ppm from 10 dph for 90 days), male fish, D 279
# [22] = Treatment 5 (10 ppm from 10 dph for 120 days)
# [23] = Treatment 5 (10 ppm from 10 dph for 120 days), of 441 fish
substance,measurement,setting,value
Succ-Asp-Ser- D-Trp -N(Me)Val-βAla-Leu-Met-NH2 (Suc-DS[dW][NMeV][βAla]LM-NH2; SMILES CSCC[C@H](NC(=O)[C@H](CC(C)C)NC(=O)CCNC(=O)[C@H](C(C)C)N(C)C(=O)[C@@H](Cc1c[nH]c2ccccc12)NC(=O)[C@H](CO)NC(=O)[C@H](CC(=O)O)NC(=O)CCC(=O)O)C(N)=O) [AN6],increase in average fish weight,5 mg AN6/Kg for 120 days (Treatment 2),+7.11%
same,increase in average fish weight,10 mg AN6/Kg feed from 10 dph for 120 days (Treatment 5),+6.41%
same,"increased daily growth rate, on average compared to the control","5 ppm and 10 ppm AN6 for sufficient time (>90 days), throughout the experimental period",5.8%
same,FCR,[1],improved FCR significantly
same,growth,[1],did not affect growth
same,FCR,[2],improved FCR significantly
same,growth,[2],did not affect growth
same,proportion of large fish (>1000 g),[3],higher proportion
same,proportion of small fish (<476 g),[3],lower proportion
same,% big fish (Big fish 279 dph >1000 g),[4],16.6%
same,% small fish (Small fish 279 dph >476 g),[4],4.7%
same,Δ Treatment - Control (%) big fish (>1000 g),[4],6.4%
same,Δ Treatment - Control (%) small fish (>476 g),[4],−4.5%
same,Big fish # (Big fish 279 dph >1000 g),[5],75
same,Small fish # (Small fish 279 dph),[5],21
same,Average FCR/cage,[4],−2.14%
same,Average density (body/cage),[4],0.45%
same,Average weight gain/fish (g),[4],6.18%
same,Average weight/fish (g),[4],6.41%
same,Total weight/cage (g),[4],6.71%
same,Length/fish (cm) Mean,[6],15.85 cm
same,Weight/fish (g) Mean,[6],87.35 g
same,Δ Mean % (Treatment vs. control) Length/fish,[6],0.38%
same,Δ Mean % (Treatment vs. control) Weight/fish,[6],6.24%
same,Length/fish (cm) Mean,[7],30.76 cm
same,Weight/fish (g) Mean,[7],651.83 g
same,Δ Mean % (Treatment vs. control) Length/fish,[7],2.09%
same,Δ Mean % (Treatment vs. control) Weight/fish,[7],8.30%
same,Length/fish (cm) Mean,[8],17.22 cm
same,Weight/fish (g) Mean,[8],111.8 g
same,Δ Mean % (Treatment vs. control) Length/fish,[8],0.00%
same,Δ Mean % (Treatment vs. control) Weight/fish,[8],5.97%
same,Length/fish (cm) Mean,[9],34.37 cm
same,Weight/fish (g) Mean,[9],916.05 g
same,Δ Mean % (Treatment vs. control) Length/fish,[9],−0.03%
same,Δ Mean % (Treatment vs. control) Weight/fish,[9],5.86%
same,% big fish (Big fish 279 dph >1000 g),[10],16.5%
same,% small fish (Small fish 279 dph >476 g),[10],4.8%
same,Δ Treatment - Control (%) big fish (>1000 g),[10],6.2%
same,Δ Treatment - Control (%) small fish (>476 g),[10],−4.3%
same,Big fish # (Big fish 279 dph >1000 g),[11],79
same,Small fish # (Small fish 279 dph),[11],23
same,Average FCR/cage,[10],−4.28%
same,Average density (body/cage),[10],6.91%
same,Average weight gain/fish (g),[10],9.19%
same,Average weight/fish (g),[10],3.44%
same,Total weight/cage (g),[10],10.27%
same,Length/fish (cm) Mean,[12],16.03 cm
same,Weight/fish (g) Mean,[12],87.67 g
same,Δ Mean % (Treatment vs. control) Length/fish,[12],1.52%
same,Δ Mean % (Treatment vs. control) Weight/fish,[12],6.63%
same,Length/fish (cm) Mean,[13],30.5 cm
same,Weight/fish (g) Mean,[13],629.02 g
same,Δ Mean % (Treatment vs. control) Length/fish,[13],1.23%
same,Δ Mean % (Treatment vs. control) Weight/fish,[13],4.51%
same,Length/fish (cm) Mean,[14],17.19 cm
same,Weight/fish (g) Mean,[14],106.51 g
same,Δ Mean % (Treatment vs. control) Length/fish,[14],−0.17%
same,Δ Mean % (Treatment vs. control) Weight/fish,[14],0.96%
same,Length/fish (cm) Mean,[15],34.14 cm
same,Weight/fish (g) Mean,[15],877.38 g
same,Δ Mean % (Treatment vs. control) Length/fish,[15],−0.70%
same,Δ Mean % (Treatment vs. control) Weight/fish,[15],1.39%
same,% big fish (Big fish 279 dph >1000 g),[16],14.7%
same,% small fish (Small fish 279 dph >476 g),[16],4.8%
same,Δ Treatment - Control (%) big fish (>1000 g),[16],4.4%
same,Δ Treatment - Control (%) small fish (>476 g),[16],−4.4%
same,Big fish # (Big fish 279 dph >1000 g),[17],68
same,Small fish # (Small fish 279 dph),[17],22
same,Average FCR/cage,[16],−2.14%
same,Average density (body/cage),[16],3.34%
same,Average weight gain/fish (g),[16],1.69%
same,Average weight/fish (g),[16],3.89%
same,Total weight/cage (g),[16],7.37%
same,Length/fish (cm) Mean,[18],15.96 cm
same,Weight/fish (g) Mean,[18],86.4 g
same,Δ Mean % (Treatment vs. control) Length/fish,[18],1.08%
same,Δ Mean % (Treatment vs. control) Weight/fish,[18],5.08%
same,Length/fish (cm) Mean,[19],30.48 cm
same,Weight/fish (g) Mean,[19],631.17 g
same,Δ Mean % (Treatment vs. control) Length/fish,[19],1.16%
same,Δ Mean % (Treatment vs. control) Weight/fish,[19],4.86%
same,Length/fish (cm) Mean,[20],17.26 cm
same,Weight/fish (g) Mean,[20],111.87 g
same,Δ Mean % (Treatment vs. control) Length/fish,[20],0.23%
same,Δ Mean % (Treatment vs. control) Weight/fish,[20],6.04%
same,Length/fish (cm) Mean,[21],34.15 cm
same,Weight/fish (g) Mean,[21],881.92 g
same,Δ Mean % (Treatment vs. control) Length/fish,[21],−0.67%
same,Δ Mean % (Treatment vs. control) Weight/fish,[21],1.92%
same,% big fish (Big fish 279 dph >1000 g),[22],12.0%
same,% small fish (Small fish 279 dph >476 g),[22],8.6%
same,Δ Treatment - Control (%) big fish (>1000 g),[22],1.8%
same,Δ Treatment - Control (%) small fish (>476 g),[22],−0.5%
same,Big fish # (Big fish 279 dph >1000 g),[23],53
same,Small fish # (Small fish 279 dph),[23],38
same,Average FCR/cage,[22],−0.53%
same,Average density (body/cage),[22],−1.78%
same,Average weight gain/fish (g),[22],7.59%
